# Measured values published in patent US20020068749A1, “AIDS REMEDY” (priority 1996, published 2002).
# Assays:
# [1] = Dynamics in vivo (concentration in plasma over time) of KNI-272 and Ritonavir in dogs
# [2] = test system: IIIB strain of HIV-1 in CEM-SS cells; experiment: Measurement of anti-HIV activity in vitro (XTT method, control of cellular denaturalization due to HIV infection); type: cell-based
# Protocol: An increase in the synergistic anti-virus activity in the combined use of KNI-272 and Saquinavir is shown by a specific experimental example. The anti-virus activity was evaluated as the capability of controlling generation of infectious virus particles in vitro. The effect of cell extinction to HIV infection was calculated when Saquinavir methanesulfonate and KNI-272 respectively or both were added to a culture liquid, to determine the concentration region where a synergistic increase in the anti-virus activity in the combined use of the two compounds is conspicuous. Measurement of the anti-virus activity in vitro was carried out according to the following procedure. In the description hereinafter the concentration of methanesulfonate is indicated as the concentration converted into Saquinavir. The concentration of KNI-272 is indicated as the concentration of the compound itself.
# A IIIB strain of HIV-1 was used as an HIV wild strain and CEM-SS cells were used as infected cells in the above-mentioned culture. The amount of HIV sufficient to kill all CEM-SS cells 6 days after inoculation (multiplicy of infection, MOI of 0.01-0.05) was determined and this amount of HIV was added. A 96 well micro-titre plate was used to inoculate 5×10^3 CEM-SS cells per well in this case. At the time of inoculation of cells, a test compound was added to the culture medium to a prescribed concentration. Three specimens were used for each test level. The following controls were used (1) as calorimetric controls: a sample with only a test compound added to the culture medium, (2) as a cytotoxic control for a test compound: a sample with only cells and the test compound added to the culture medium, (3) as a virus control: a sample with the cells inoculated with only a virus, and (4) as a cell survival control, a sample consisting only of cells. In addition, AZT and DDC which are compounds with a known anti-HIV activity were used as positive controls. After the cells were added, they were inoculated with the infecting virus, followed by incubation at 37° C.for 6 days. Cellular denaturalization due to HIV infection was colorimetrically measured for each well. Employing the colorimetry, was the metabolism from XTT Tetrazolium to XTT Formazan was evaluated. This colorimetry is called the XTT method (see Weislow et al., Journal of the National Cancer Institute 81, 577-586 (1989)). After the above-mentioned incubation, a prescribed amount of XTT was added to each well and incubation was continued for a further four hours at 37° C. to measure the amount of XTT Formazan produced by metabolism by means of calorimetric quantitation.
# The anti-HIV activity for each experimental level was calculated by comparing the number of undenatured cells measured by the above-mentioned assay with the corresponding number of cells in the four control groups. Specifically, the proportion of cellular denaturalization due to HIV infection controlled by the addition of the test compound was calculated. A systematic deviation between the several experiments was corrected based on the results of AZT and ddC used as positive controls.
# In this example, 0 ng/ml and several concentrations in the range of 0.625-10.0 ng/ml of Saquinavir methanesulfonate and 0 ng/ml and several concentrations in the range of 0.313-80.0 ng/ml of KNI-272 were used. The results (anti-HIV activities) obtained under these conditions using either one of these medicaments or both medicaments in combination are shown in Table 1.
# With regard to this concentration region wherein no synergistic increase can be seemingly identified, a similar evaluation was carried out adding a larger amount of HIV to qualitatively evaluate the presence or absence of a synergistic effect. […] This affords qualitative results rather than quantitative results.
# An increase in the synergistic anti-virus activity in the combined use of KNI-272 and Ritonavir is shown by a specific experimental example. […]
# KNI-272 resistant strain = experiment: microbe, parasite or virus in culture; type: cell-based, HIV
# Text: (§1) A drug resistant strain virus is a resistance strains induced in a cell culture system in vitro while maintaining infection in the presence of each medicament through generations.
# [3] = Change of concentration in plasma over time after oral administration to rats (KNI-272 with Indinavir or Nelfinavir); details: for AUC: rat, plasma, po, 40 mg/kg, AUC value of Indinavir
# Protocol: In this example, the change in concentration in blood of KNI-272 over time when the KNI-272 was orally administered in combination with Indinavir, i.e. the change in the concentration of a non-binding type of drug in plasma over time, was measured to evaluate the effect of drug interactions on fluctuations of dynamics in vivo. A commercially available Indinavir for oral administration, CRIXIVAN™ (manufactured by Merck), was used after dissolving Indinavir sulfate in a prescribed concentration. As KNI-272, a suspension prepared from a fine powder of KNI-272 was used. Rats were used as test animals. […] In addition, each compound was individually administered to control groups to evaluate the dynamics in vivo. The animals were fasted for 16 hours before administration. The measurement of the change in the non-binding drug concentration in plasma over time was carried out according to a conventional method using blood samples collected from the test animals.
# The method of evaluation was applied to the above-mentioned system of Indinavir and KNI-272 was followed. […] In this example, a dosage of 50 mg/kg was selected for both Nelfinavir and KNI-272.
# HIV Wild strain (IIIB) = experiment: Anti-virus activity IC50 against wild strain; type: cell-based; details: Wild strain (IIIB)
# [4] = test system: Ritonavir resistant strain; experiment: Anti-virus activity IC50 against Ritonavir resistant strain; type: cell-based, HIV; details: Ritonavir resistant strain
# [5] = test system: Indinavir resistant strain; experiment: Anti-virus activity IC50 against Indinavir resistant strain; type: cell-based, HIV; details: Human immunodeficiency virus 1, read-out: Anti-virus activity IC50
# Text: as §1
# [6] = Human immunodeficiency virus 1, read-out: Anti-virus activity IC50
# [7] = Indinavir 40 mg/kg + KNI-272 40 mg/kg p.o. at the same time
structure (smiles),measurement,setting,value
"CC(C)c1nc(CN(C)C(=O)NC(C(=O)N[C@@H](Cc2ccccc2)C[C@H](O)[C@H](Cc2ccccc2)NC(=O)OCc2cncs2)C(C)C)cs1 (relative stereo) [Ritonavir, [5S-(5R*, 8R*, 10R*,11R*)]-10-hydroxy-2-methyl-5-(1-methylethyl)-1-[2-(1-methylethyl)-4-thiazolyl]-3,6-dioxo-8,11-bis(phenylmethyl)-2,4,7,12-tetraaza-tridecane-13-hydroxyacid 5-thiazolylmethyl ester, reference compound]",influence of combined use of KNI-272 on the dynamics in vivo of Ritonavir,"[1]; KNI-272 administered immediately after Ritonavir, dogs",no apparent influence
same,MRT value (index of the half-life of concentration in blood),[1]; medicaments individually administered,≥ 180 minutes and more than 180 minutes
same,Anti-HIV activity (%),[2]; Ritonavir 1.25 ng/ml alone,2.0%
same,Anti-HIV activity (%),[2]; Ritonavir 2.5 ng/ml alone,2.3%
same,Anti-HIV activity (%),[2]; Ritonavir 5.0 ng/ml alone,0.5%
same,Anti-HIV activity (%),[2]; Ritonavir 10.0 ng/ml alone,8.9%
"Cc1c(O)cccc1C(=O)N[C@@H](CSc1ccccc1)[C@H](O)CN1C[C@H]2CCCC[C@H]2C[C@H]1C(=O)NC(C)(C)C (relative stereo) [Nelfinavir, [3S-[2(2S*, 3S*), 3α, 4α, 8aβ]]-N-1,1-dimethylethyl-decahydro-2-[2-hydroxy-3-[(3-hydroxy-2-methylbenzoyl)amino]-4-(phenylthio)butyl]-3-isoquinolinecarboxamide, reference compound]",Anti-virus activity IC50,KNI-272 resistant strain; KNI-272 resistant strain,0.030 µg/mL
same,AUC value for Nelfinavir,[3]; Nelfinavir 50 mg/kg p.o. only,130 µg·min/mL
same,AUC value for Nelfinavir,[3]; Nelfinavir 50 mg/kg p.o. simultaneously with KNI-272 50 mg/kg,215 µg·min/mL
same,increase in AUC value for Nelfinavir,[3]; Nelfinavir 50 mg/kg with KNI-272 50 mg/kg vs alone,~1.6 times
same,Anti-virus activity IC50,HIV Wild strain (IIIB),0.007 µg/mL
same,Anti-virus activity IC50,[4],0.124 µg/mL
"CC(C)(C)NC(=O)[C@@H]1CN(Cc2cccnc2)CCN1C[C@@H](O)C[C@@H](Cc1ccccc1)C(=O)N[C@H]1c2ccccc2C[C@H]1O [Indinavir, [1(1S, 2R),5(S)]-2,3,5-trideoxy-N-(2,3-dihydro-2-hydroxy-1H-indane-1-yl)-5-[2-(1,1-dimethylethyl)aminocarbonyl-4-(3-pyridinylmethyl)-1-piperazinyl]-2-(phenylmethyl)-D-erythro-pentonamide, reference compound]",IC50,KNI-272 resistant strain; [6],0.03 µg/mL
same,IC50,[5],0.576 µg/mL
same,increase in maximum concentration in blood value (Cmax) of Indinavir,[3]; [7],as much as twice
same,increase in the AUC value of Indinavir,[3]; [7],almost two times
same,AUC,[3]; Indinavir 40 mg/kg p.o. individually,17200 ng·h/mL
same,AUC,[3]; Indinavir 40 mg/kg p.o. together with KNI-272 40 mg/kg,44300 ng·h/mL
same,IC50,HIV Wild strain (IIIB); [6],0.009 µg/mL
